Patent US20050245399A1, “Pyrazole derivatives as herbicidal compositions containing them” (ISHIHARA SANGYO KAISHA, LTD., priority 2004, published 2005)

Tests used:
Format in all cases: in vivo
[1] = test system: corn (Zea mays L.): ZEAMX; experiment: Test Example 1 pre-emergence herbicidal activity, ZEAMX; conditions: visually observed 20th to 23rd day after application
Summary of the method: (§1)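 Pots of upland soil were sown, and one day later WP or EC formulations at set active-ingredient rates were sprayed pre-emergence in 500 L/ha water. Growth control scored visually 20–23 days after application, 0 (as untreated) to 100 (complete kill).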

[2] = test system: japanese ribbon wapato (Sagittaria pygmaea: SA GPY); experiment: Test Example 3 water application herbicidal activity (paddy), SAGPY; conditions: 63 g a.i./ha, water application under submerged condition, tubers planted, visually observed 14th day after application; 0 = untreated control, 100 = complete kill
Summary of the method: (§2)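 Flooded paddy-soil pots in greenhouse; ECHOR and SCPJO sown, SAGPY tubers planted a day later, compound applied into 3–4 cm water at weeds' 0.5-leaf stage. Rice transplanted at 2-leaf stage, treated day 4 after transplanting. Visual growth control 0–100% at 14 days (weeds) and 21 days (rice) after application.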

[3] = test system: redroot pigweed (Amaranthus retroflexus L.): AMARE; experiment: Test Example 1 pre-emergence herbicidal activity, AMARE; conditions: Rate 63 g a.i./ha, visually observed 20th to 23rd day after application
Summary of the method: as §1

[4] = test system: wheat (Triticum aestivum L.): TRZAX; experiment: Test Example 1 pre-emergence herbicidal activity, TRZAX; conditions: visually observed 20th to 23rd day after application
Summary of the method: as §1

[5] = test system: velvetleaf (Abutilon theophrasti), ABUTH; experiment: Test Example 2 post-emergence (foliage treatment) herbicidal activity, ABUTH
Summary of the method: (§3)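 Foliar spray of formulated compound (500 L/ha dilution water, 0.1% v/v spreader) onto young potted plants at defined leaf stages. Scored 0-100% by visual inspection 20-23 d post-spray.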

[6] = test system: rice (Oryza sativa L.), ORYSA; experiment: Test Example 2 post-emergence (foliage treatment) herbicidal activity, ORYSA
Summary of the method: (§4)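 Plants grown in upland soil pots were sprayed on foliage at set leaf stages (ECHCG 1.1-2.1, DIGSA 1.0-2.0, AMARE 0.1-1.5, ORYSA 1.0-2). Formulated compound was applied at predetermined active-ingredient amounts in 500 L/ha water with 0.1% (v/v) spreader. Growth control (0–100%) was visually scored 20–23 days later.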

[7] = test system: barnyardgrass (Echinochloa crus-galli L.), ECHCG; experiment: Test Example 2 post-emergence (foliage treatment) herbicidal activity, ECHCG
Summary of the method: as §4

[8] = test system: redroot pigweed (Amaranthus retroflexus L.), AMARE; experiment: Test Example 2 post-emergence (foliage treatment) herbicidal activity, AMARE
Summary of the method: as §4

[9] = test system: prickly sida (Sida spinosa L.): SEDSP; experiment: Test Example 1 pre-emergence herbicidal activity, SIDSP; conditions: visually observed 20th to 23rd day after application
Summary of the method: as §1

[10] = test system: soybean (Glycine max Merr.), GLXMA; experiment: Test Example 2 post-emergence (foliage treatment) herbicidal activity, GLXMA
Summary of the method: as §3

[11] = test system: crabgrass (Digitaria sanguinalis L.): DIGSA; experiment: Test Example 1 pre-emergence herbicidal activity, DIGSA; conditions: visually observed 20th to 23rd day after application
Summary of the method: as §1

[12] = test system: green foxtail (Setaria viridis L.): SETVI; experiment: Test Example 1 pre-emergence herbicidal activity, SETVI; conditions: visually observed 20th to 23rd day after application
Summary of the method: as §1

[13] = test system: rice (Oryza sativa L.): ORYSA; experiment: Test Example 1 pre-emergence herbicidal activity, ORYSA; conditions: visually observed 20th to 23rd day after application
Summary of the method: as §1

[14] = test system: crabgrass (Digitaria sanguinalis L.), DIGSA; experiment: Test Example 2 post-emergence (foliage treatment) herbicidal activity, DIGSA
Summary of the method: as §4

[15] = test system: wheat (Triticum aestivum L.), TRZAX; experiment: Test Example 2 post-emergence (foliage treatment) herbicidal activity, TRZAX
Summary of the method: as §3

[16] = test system: velvetleaf (Abutilon theophrasti): ABUTH; experiment: Test Example 1 pre-emergence herbicidal activity, ABUTH; conditions: visually observed 20th to 23rd day after application
Summary of the method: as §1

[17] = test system: soybean (Glycine max Merr.): GLXMA; experiment: Test Example 1 pre-emergence herbicidal activity, GLXMA; conditions: visually observed 20th to 23rd day after application
Summary of the method: as §1

[18] = test system: rice (Oryza sativa L.: ORYSA); experiment: Test Example 3 water application herbicidal activity (paddy), transplanted rice ORYSA; conditions: 63 g a.i./ha, water application 4th day after transplantation of 2 leaf stage rice, visually observed 21st day after application; 0 = untreated control, 100 = complete kill
Source text: Paddy field soil was put into a 1/1,000,000 ha pot and seeds of barnyardgrass (Echinochiloa oryzicola: ECHOR) and japanese bulrush (Scirpus juncoides: SCPJO) were sown and slightly covered with soil. Then the pot was left to stand still in a greenhouse in a state where the depth of flooding water was from 0.5 to 1 cm, and one day later, tubers of japanese ribbon wapato (Sagittaria pygmaea: SA GPY) were planted. Thereafter, the depth of flooding water was maintained at a level of from 3 to 4 cm, and when barnyardgrass and japanese bulrush reached a 0.5 leaf stage, an aqueous diluted solution of a wettable powder or emulsifiable concentrate having the compound of the present invention formulated in accordance with a usual formulation method, was uniformly applied under submerged condition by a pipette so that the dose of the active ingredient would be at a predetermined level. On the other hand, paddy filed soil was put into a 1/1,000,000 ha pot and puddled and leveled, and the depth of flooding water was from 3 to 4 cm. One day later, rice (Oryza sativa L.: ORYSA) of 2 leaf stage was transplanted in a depth of 3 cm. On the 4th day after the transplantation, the compound of the present invention was applied in the same manner as described above. On the 14th day after the application of the herbicide, the growth of barnyardgrass, japanese burlush and japanese ribbon wapato was visually observed and on the 21st day after the application of the herbicide, the growth of rice was visually observed, and the herbicidal effects were evaluated by growth controlling degrees (%) ranging from 0 (equivalent to the untreated control) to 100 (complete kill), whereby the results shown in Table 6, were obtained. Compound Nos. in Table 6 correspond to Compound Nos. in Table 1 and 2 given hereinbefore.

[19] = test system: corn (Zea mays L.), ZEAMX; experiment: Test Example 2 post-emergence (foliage treatment) herbicidal activity, ZEAMX
Summary of the method: as §3

[20] = test system: green foxtail (Setaria viridis L.), SETVI; experiment: Test Example 2 post-emergence (foliage treatment) herbicidal activity, SETVI
Summary of the method: as §3

[21] = test system: barnyardgrass (Echinochiloa oryzicola: ECHOR); experiment: Test Example 3 water application herbicidal activity (paddy), ECHOR; conditions: 63 g a.i./ha, water application under submerged condition at 0.5 leaf stage, visually observed 14th day after application; 0 = untreated control, 100 = complete kill
Summary of the method: as §2

[22] = test system: prickly sida (Sida spinosa L.), SIDSP; experiment: Test Example 2 post-emergence (foliage treatment) herbicidal activity, SIDSP
Summary of the method: as §3

[23] = test system: japanese bulrush (Scirpus juncoides: SCPJO); experiment: Test Example 3 water application herbicidal activity (paddy), SCPJO; conditions: 63 g a.i./ha, water application under submerged condition at 0.5 leaf stage, visually observed 14th day after application; 0 = untreated control, 100 = complete kill
Summary of the method: as §2

[24] = test system: barnyardgrass (Echinochloa crus-galli L.): ECHCG; experiment: Test Example 1 pre-emergence herbicidal activity, ECHCG; conditions: visually observed 20th to 23rd day after application
Summary of the method: as §1

| Compound | Pre-emergence Herbicidal Activity ZEAMX (growth controlling degree) ([1]; Rate 63 g a.i./ha) | growth controlling degrees (%) SAGPY [2] | Pre-emergence Herbicidal Activity AMARE (growth controlling degree) [3] | Pre-emergence Herbicidal Activity TRZAX (growth controlling degree) ([4]; Rate 63 g a.i./ha) | growth controlling degree, ABUTH ([5]; 63 g a.i./ha) | growth controlling degree, ORYSA ([6]; 63 g a.i./ha) | growth controlling degree, ECHCO ([7]; 63 g a.i./ha) | growth controlling degree, AMARE ([8]; 63 g a.i./ha) | Pre-emergence Herbicidal Activity SIDSP (growth controlling degree) ([9]; Rate 63 g a.i./ha) | growth controlling degree, GLXMA ([10]; 63 g a.i./ha) | Pre-emergence Herbicidal Activity DIGSP (growth controlling degree) ([11]; Rate 63 g a.i./ha) | Pre-emergence Herbicidal Activity SETVI (growth controlling degree) ([12]; Rate 63 g a.i./ha) | growth controlling degree, DIGSP ([14]; 63 g a.i./ha) | growth controlling degree, TRZAX ([15]; 63 g a.i./ha) | growth controlling degrees (%) ORYSA [18] | growth controlling degree, ZEAMX ([19]; 63 g a.i./ha) | growth controlling degree, SETVI ([20]; 63 g a.i./ha) | growth controlling degrees (%) ECHOR [21] | growth controlling degree, SIDSP ([22]; 63 g a.i./ha) | growth controlling degrees (%) SCPJO [23] | other results |
| --- | --- | --- | --- | --- | --- | --- | --- | --- | --- | --- | --- | --- | --- | --- | --- | --- | --- | --- | --- | --- | --- |
| COc1c(Cl)cc(F)c(-c2nn(C)c(OC(F)F)c2Cl)c1NC(=O)COc1ccc(Cl)cc1 [Compound 1-35] | 0% | 60% | 100% | 20% | 100% | 60% | 80% | 100% | 20% | 80% | 50% | 80% | 70% | 40% | 30% | 60% | 95% | 100% | 100% | 70% | Pre-emergence Herbicidal Activity ORYSA (growth controlling degree) ([13]; Rate 63 g a.i./ha): 40%; Pre-emergence Herbicidal Activity ABUTH (growth controlling degree) ([16]; Rate 63 g a.i./ha): 20%; Pre-emergence Herbicidal Activity GLXMA (growth controlling degree) ([17]; Rate 63 g a.i./ha): 0%; Pre-emergence Herbicidal Activity ECHCG (growth controlling degree) ([24]; Rate 63 g a.i./ha): 20% |
| CCOC(=O)CN(C=O)c1c(OC)c(Cl)cc(F)c1-c1nn(C)c(OC(F)F)c1Cl [Compound 1-19] |  | 20% |  |  | 90% | 20% | 30% | 100% |  | 60% |  |  | 30% | 10% | 30% | 0% | 30% | 70% | 90% | 30% | Pre-emergence Herbicidal Activity ZEAMX (growth controlling degree) ([1]; Rate 125 g a.i./ha): 20%; Pre-emergence Herbicidal Activity TRZAX (growth controlling degree) ([4]; Rate 125 g a.i./ha): 0%; Pre-emergence Herbicidal Activity SIDSP (growth controlling degree) ([9]; Rate 125 g a.i./ha): 50%; Pre-emergence Herbicidal Activity DIGSP (growth controlling degree) ([11]; Rate 125 g a.i./ha): 50%; Pre-emergence Herbicidal Activity SETVI (growth controlling degree) ([12]; Rate 125 g a.i./ha): 10%; Pre-emergence Herbicidal Activity ORYSA (growth controlling degree) ([13]; Rate 125 g a.i./ha): 0%; Pre-emergence Herbicidal Activity ABUTH (growth controlling degree) ([16]; Rate 125 g a.i./ha): 20%; Pre-emergence Herbicidal Activity GLXMA (growth controlling degree) ([17]; Rate 125 g a.i./ha): 0%; Pre-emergence Herbicidal Activity ECHCG (growth controlling degree) ([24]; Rate 125 g a.i./ha): 0% |
| COc1c(Cl)cc(F)c(-c2nn(C)c(OC(F)F)c2Cl)c1[N+](=O)[O-] [Compound 2-21, 4-chloro-3-(4-chloro-6-fluoro-3-methoxy-2-nitrophenyl)-5-(difluoromethoxy)-1-methyl-1H-pyrazole] |  | 100% |  |  |  |  |  |  |  |  |  |  |  |  | 40% |  |  | 100% |  | 98% | growth controlling degree, ABUTH ([5]; 31 g a.i./ha): 100%; growth controlling degree, ORYSA ([6]; 31 g a.i./ha): 90%; growth controlling degree, ECHCO ([7]; 31 g a.i./ha): 100%; growth controlling degree, AMARE ([8]; 31 g a.i./ha): 100%; growth controlling degree, GLXMA ([10]; 31 g a.i./ha): 90%; growth controlling degree, DIGSP ([14]; 31 g a.i./ha): 95%; growth controlling degree, TRZAX ([15]; 31 g a.i./ha): 40%; growth controlling degree, ZEAMX ([19]; 31 g a.i./ha): 80%; growth controlling degree, SETVI ([20]; 31 g a.i./ha): 100%; growth controlling degree, SIDSP ([22]; 31 g a.i./ha): 100% |
| COCCOC(=O)Nc1c(OC)c(Cl)cc(F)c1-c1nn(C)c(OC(F)F)c1Cl [Compound 1-61] | 30% | 100% | 100% | 50% | 100% | 80% | 100% | 100% | 100% | 80% | 100% | 100% | 100% | 60% | 95% | 80% | 100% | 100% | 100% | 90% | Pre-emergence Herbicidal Activity ORYSA (growth controlling degree) ([13]; Rate 63 g a.i./ha): 70%; Pre-emergence Herbicidal Activity ABUTH (growth controlling degree) ([16]; Rate 63 g a.i./ha): 100%; Pre-emergence Herbicidal Activity GLXMA (growth controlling degree) ([17]; Rate 63 g a.i./ha): 10%; Pre-emergence Herbicidal Activity ECHCG (growth controlling degree) ([24]; Rate 63 g a.i./ha): 100% |
| COc1c(Cl)cc(F)c(-c2nn(C)c(OC(F)F)c2Cl)c1NC(=O)c1ccccc1F [Compound 1-22] | 20% | 98% | 100% | 10% | 100% | 95% | 100% | 100% | 100% | 98% | 100% | 100% | 100% | 40% | 40% | 90% | 100% | 100% | 100% | 95% | Pre-emergence Herbicidal Activity ORYSA (growth controlling degree) ([13]; Rate 63 g a.i./ha): 50%; Pre-emergence Herbicidal Activity ABUTH (growth controlling degree) ([16]; Rate 63 g a.i./ha): 100%; Pre-emergence Herbicidal Activity GLXMA (growth controlling degree) ([17]; Rate 63 g a.i./ha): 50%; Pre-emergence Herbicidal Activity ECHCG (growth controlling degree) ([24]; Rate 63 g a.i./ha): 80% |
